Experimental data from US20090081310A1, “METHOD FOR R[…] STRUCTURE CO[…] MOLD” (priority 2004, published 2009).

Experiments:
mold and mold spores [1] = experiment: Fumigation of an approximately 50,000 ft^2 mold-contaminated building with chlorine dioxide gas (Example 1); conditions: 2,500 to 3,000 ppmv over 3 hours; approx. 75° F., approx. 75% relative humidity
Experimental: An approximately 50,000 ft^2 mold-contaminated building (1 million cubic feet approximately) was remediated by fumigating the building with chlorine dioxide gas at a concentration within the range of 2,500 to 3,000 ppmv over a period of 3 hours. Temperature was maintained at approximately 75° F. and the relative humidity was maintained at approximately 75% before and during fumigation. Carpets and other porous materials within the contaminated building were not removed prior to fumigation. […] Porous surfaces that were black, grey and green shades prior to treatment were returned to original appearance. The mold mass was also substantially eliminated such that one to four square foot samples were required to collect 0.1 to 0.25 grams of mold residue resulting in a 99+ percent elimination in mold mass. Samples of the treated material were analyzed by PCR (polymerase chain reaction) analysis for DNA. Depending upon the initial concentration levels a 3 to 7 log reduction in DNA was observed.

mold and mold spores [2] = experiment: Fumigation of an approximately 6000 square feet mold-contaminated structure with chlorine dioxide gas (Example 2); conditions: 600 to 1300 ppmv for 12 hours, total CT over 9000 ppmv hours; 70 to 100° F., minimum 65% relative humidity; including mold underneath wallpaper
Experimental: A structure of approximately 6000 square feet consisting of three above surface floors and a basement was located that had developed significant mold growth of a variety of species due to water intrusion and appropriate environmental conditions. […] Mold growth was visible and abundant upon walls, ceilings and other surfaces.
The temperature of the structure was raised and maintained in the range of 70 to 100° F. (21 to 38° C.) and the relative humidity was raised to a minimum of 65%. Chlorine dioxide solution was generated in a closed fluid loop by the process described in U.S. Pat. No. 6,468,479. Chlorine dioxide gas was added to the structure at such a rate as to maintain a concentration of between 600 and 1300 ppmv for a 12 hour period and a total CT of over 9000 ppmv hours of chlorine dioxide.
Chlorine dioxide concentration and purity were monitored by AWWA standard method 6500-ClO2-E in solution phase and a modification therewith to adapt the procedure for gas phase sampling. […] The maximum chlorine dioxide concentration detected exterior to the containment tent was less than 2 parts per billion, well within the maximum exposure guidelines established.
Following treatment mold viability was evaluated in the structure. […]

mold spores = experiment: Mold remediation with chlorine dioxide gas, general finding; conditions: time averaged concentration about 500 to 1500 ppmv over a 12 hour period
Experimental: It is an aspect of this invention to minimize the chlorine dioxide concentration and CT to the extent possible to assure decontamination while avoiding damage to building contents such as electronic equipment (e.g., telephone equipment, computers, copiers, and other electronic office equipment), furnishings, and the like. Typical chlorine dioxide concentrations are in the range of 500 to 3000 ppmv, and exposure times are typically about 8 to 12 hours. For mold remediation, a time averaged chlorine dioxide gas concentration in the range of about 500 to 1500 ppmv over a 12 hour period has been found effective for killing mold spores and eliminating allergenic effects.

SMILES: [O][Cl+][O-] [chlorine dioxide gas, chlorine dioxide]
- elimination in mold mass (mold and mold spores [1]): ≥ 99%
- viable mold and mold spores in the facility (mold and mold spores [1]): substantially eliminated viable mold and mold spores
- mold and mold spores rendered non viable (mold and mold spores [2]): ~100%
- killing mold spores and eliminating allergenic effects (mold spores): effective
